Measured values from the supplement of paper PMC12592484.

Columns and labels:
Experiment in all cases: drug sensitivity score (DSS2, normalised partial AUC of dose-response, 72 h CellTiter-Glo viability) (DSS (dimensionless)); higher = more sensitive (stronger growth inhibition / cytotoxicity); extreme values may be limits of the assay
[1] = system: CAF#3 (primary prostate cancer-associated fibroblasts of myCAF-like type)
Method in brief: (§1)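 Five doses spanning a 10,000-fold range were pre-dispensed into 384-well plates, into which low-passage primary prostate cancer-associated fibroblasts, PF179T, WPMY-1, LNCaP and 22Rv1 cells were seeded. After 72 h, CellTiter-Glo 2.0 luminescence measured viability, scaled to vehicle and positive-control wells. Higher values of the drug sensitivity score, a BREEZE-computed partial area under the fitted logistic dose–response curve divided by the log of the upper asymptote, mean greater sensitivity.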

[2] = system: LNCAP
Method in brief: as §1

[3] = system: CAF#7 (primary prostate cancer-associated fibroblasts of myCAF-like type)
Method in brief: as §1

[4] = system: CAF#2 (primary prostate cancer-associated fibroblasts of iCAF-like type)
Method in brief: as §1

[5] = system: PF179T
Method in brief: as §1

[6] = system: CAF#5 (primary prostate cancer-associated fibroblasts of myCAF-like type)
Method in brief: as §1

[7] = system: 22Rv1
Method in brief: as §1

[8] = system: CAF#1 (primary prostate cancer-associated fibroblasts of myCAF-like type)
Method in brief: as §1

[9] = system: CAF#4 (primary prostate cancer-associated fibroblasts of iCAF-like type)
Method in brief: as §1

[10] = system: CAF#6 (primary prostate cancer-associated fibroblasts of iCAF-like type)
Method in brief: as §1

[11] = system: WPMY-1
Method in brief: as §1

| SMILES | drug sensitivity score [1] | drug sensitivity score [2] | drug sensitivity score [3] | drug sensitivity score [4] | drug sensitivity score [5] | drug sensitivity score [6] | drug sensitivity score [7] | drug sensitivity score [8] | drug sensitivity score [9] | drug sensitivity score [10] | drug sensitivity score [11] |
| --- | --- | --- | --- | --- | --- | --- | --- | --- | --- | --- | --- |
| C[C@]1(c2nc3c(C(N)=O)cccc3[nH]2)CCCN1 [Veliparib] (tested concentration range 1-10000 nM) | 2.6 | 0.7 | 1.2 | 1.5 | 0.5 | 0 | 1.4 | 1.2 | 0 | 1.7 | 0.8 |
| CCCS(=O)(=O)Nc1ccc(F)c(C(=O)c2c[nH]c3ncc(-c4ccc(Cl)cc4)cc23)c1F [Vemurafenib] (tested concentration range 1-10000 nM) | 4.4 | 3 | 1.6 | 5.3 | 2.8 | 4.7 | 3.4 | 4.3 | 3 | 0.8 | 1.9 |
| CC1(C)CCC(CN2CCN(c3ccc(C(=O)NS(=O)(=O)c4ccc(NCC5CCOCC5)c([N+](=O)[O-])c4)c(Oc4cnc5[nH]ccc5c4)c3)CC2)=C(c2ccc(Cl)cc2)C1 [Venetoclax] (tested concentration range 0.1-1000 nM) | 0 | 0 | 0 | 0 | 0 | 0 | 0 | 0 | 0 | 0 | 0 |
| CCCCOc1nc(N)c2c(n1)N(Cc1cccc(CN3CCCC3)c1)CC(=O)N2 [Vesatolimod] (tested concentration range 1-10000 nM) | 0 | 0 | 0 | 0 | 0 | 0 | 0 | 0 | 0 | 0 | 0 |
| CC[C@]1(O)C[C@@H]2CN(CCc3c([nH]c4ccccc34)[C@@](C(=O)OC)(c3cc4c(cc3OC)N(C)[C@H]3[C@@](O)(C(=O)OC)[C@H](OC(C)=O)[C@]5(CC)C=CCN6CC[C@]43[C@@H]65)C2)C1 [Vinblastine] (tested concentration range 0.1-1000 nM) | 2.8 | 24.7 | 7.5 | 5.6 | 5.9 | 5.2 | 7.7 | 4.1 | 3.6 | 5.1 | 11.9 |
| CC[C@]1(O)C[C@H]2CN(CCc3c([nH]c4ccccc34)[C@@](C(=O)OC)(c3cc4c(cc3OC)N(C=O)[C@H]3[C@@](O)(C(=O)OC)[C@H](OC(C)=O)[C@]5(CC)C=CCN6CC[C@]43[C@@H]65)C2)C1 [Vincristine] (tested concentration range 0.1-1000 nM) | 4.7 | 26 | 11.5 | 5.1 | 4.5 | 4.3 | 12.3 | 4.4 | 2 | 5.6 | 12.1 |
| CC[C@]12C=CCN3CC[C@@]4(c5cc([C@@]6(C(=O)OC)C[C@@H]7C[C@@H](C(C)(F)F)CN(Cc8c6[nH]c6ccccc86)C7)c(OC)cc5N(C)[C@H]4[C@@](O)(C(=O)OC)[C@@H]1OC(C)=O)[C@@H]32 [Vinflunine] (tested concentration range 0.1-1000 nM) | 2 | 4.3 | 4.4 | 0.9 | 3.8 | 1.1 | 4.8 | 0.9 | 0.1 | 2.4 | 5.5 |
| CCC1=C[C@@H]2CN(C1)Cc1c([nH]c3ccccc13)[C@@](C(=O)OC)(c1cc3c(cc1OC)N(C)[C@H]1[C@@](O)(C(=O)OC)[C@H](OC(C)=O)[C@]4(CC)C=CCN5CC[C@]31[C@@H]54)C2 [Vinorelbine] (tested concentration range 1-10000 nM) | 15.3 | 42 | 26 | 20.1 | 19.7 | 18.1 | 31.3 | 17.3 | 12.6 | 19.6 | 36.9 |
| CS(=O)(=O)c1ccc(C(=O)Nc2ccc(Cl)c(-c3ccccn3)c2)c(Cl)c1 [Vismodegib] (tested concentration range 1-10000 nM) | 1.5 | 0.2 | 0 | 0 | 0 | 0 | 0 | 0 | 0 | 0 | 0 |
| CNC(=O)c1cccc(-c2ccc3c(N4CCOC[C@@H]4C)nc(N4CCOC[C@@H]4C)nc3n2)c1 [Vistusertib] (tested concentration range 1-10000 nM) | 14.8 | 19.4 | 14.4 | 15.8 | 16.2 | 19.6 | 19.9 | 17.7 | 17.9 | 14 | 13.7 |
| CC[C@@H]1C(=O)N(C)c2cnc(Nc3ccc(C(=O)N[C@H]4CC[C@H](N5CCN(CC6CC6)CC5)CC4)cc3OC)nc2N1C(C)C [Volasertib] (tested concentration range 0.1-1000 nM) | 4.2 | 19.3 | 2.9 | 5.1 | 5.9 | 1.7 | 14.9 | 0.4 | 0 | 1.9 | 11.4 |
| O=C(CCCCCCC(=O)Nc1ccccc1)NO [Vorinostat] (tested concentration range 1-10000 nM) | 6.3 | 10 | 3.1 | 6.5 | 3.4 | 4.1 | 9.7 | 4 | 4.9 | 4.2 | 9.7 |
| Oc1nc(-c2ccc(C(F)(F)F)cc2)nc2c1CSCC2 [XAV-939] (tested concentration range 1-10000 nM) | 2.5 | 2.1 | 4.3 | 5.4 | 2.6 | 4.1 | 0 | 2.6 | 2.6 | 4 | 0 |
| Cc1sc2c(c1C)C(c1ccc(Cl)cc1)=N[C@@H](CC(=O)NCCCCNC(=O)COc1cccc3c1C(=O)N(C1CCC(=O)NC1=O)C3=O)c1nnc(C)n1-2 (some centres undefined) [dBET1] (tested concentration range 1-10000 nM) | 12 | 9.1 | 14.2 | 2.7 | 0.2 | 8.2 | 12 | 4.5 | 6.3 | 9.1 | 6 |
